Laboratory results from PMC11151202 (Molecular Pharmaceutics, 2024).
≈ marks a conversion by molar mass, not a printed value.

What was measured:
Biorelevant solubility = format: physicochemical; conditions: 37 °C, biorelevant media pH 6.5 (3 mM taurocholate, 0.75 mM phospholipids), mean ± SD, n = 3
Experimental: The media utilized in this experiment were composed of 2 mM Tris-maleate, 150 mM NaCl, and 1.06 mM CaCl2. The pH of the media was adjusted to pH 6.5. The media were supplemented with FaSSIF powder a day prior to the experiment, resulting in a composition of the final biorelevant media of 3 mM taurocholate and 0.75 mM phospholipids. This final solution will be referred to as the “biorelevant media” throughout this paper. The biorelevant media was left at room temperature at least 2 h prior to usage. […] The suspensions were placed in an oven at 37 °C and were stirred at 200 rpm. Samples were taken at time points of 3, 6, and 24 h and centrifuged at 21,380g (Mikro 200 R, Hettich GmbH, Germany) for 30 min at 37 °C. The resulting supernatant was transferred to a new sample tube and centrifuged again under identical conditions. Samples were diluted 1:10 (v/v) with the mobile phase before analysis. The samples were analyzed using an Agilent 1200 series HPLC system (Agilent Technology Inc., United States) via HPLC, as described above.

[1] = Equilibrium solubility studies in lipid excipients / LBFs; format: physicochemical; conditions: 37 °C, venetoclax free base equivalents
Experimental: Samples were stirred at 200 rpm (Mixdrive 15 2MAG, Germany) at 37 °C. Samples were withdrawn after 24, 48, and 72 h, followed by centrifugation at 21,000g (Mikro 200R Andreas Hettich GmbH & Co. KG, Germany) for 30 min. The supernatant was extracted and centrifuged again under identical conditions. The resulting supernatant was solubilized 1:10 v/v in a mixture of acetonitrile and ethyl acetate (1:4 v/v), followed by a further 1:10 v/v dilution in acetonitrile and ethyl acetate (4:1 v/v). Samples were analyzed by HPLC as per the method above. All samples were analyzed in triplicate.

[2] = Saturation during in vitro testing (saturation ratio); format: physicochemical; conditions: all cases: medium- and long-chain LBFs, after dispersion and digestion
Experimental: The degree of saturation of drug concentrations in the aqueous phase during the in vitro lipolysis experiment was measured by comparing the measured aqueous phase concentration to the equilibrium drug solubility in samples containing dispersed and digested nondrug loaded formulations under identical conditions. Excess drug or lipophilic salt was added to 2 mL samples of the blank aqueous phase and stirred at 37 °C for 24 h. Samples were withdrawn, centrifuged, and analyzed under conditions identical to those in Section 2.2.9. […] Saturation ratios were evaluated at the end of the dispersion phase and the end of the digestion phase.

[3] = In vitro lipolysis (dispersion and digestion) of LBFs; format: physicochemical
Experimental: The LBFs were assayed using the in vitro lipolysis method[25] to assess the potential for formulations containing dissolved lipophilic salt to maintain the drug in a solubilized state as the formulation is dispersed and digested under simulated gastrointestinal conditions. Formulations utilized in this experiment were loaded at 80% equilibrium solubility as per Section 2.2.6, at drug doses outlined in Table 3.
The in vitro lipolysis experiments were performed using a pH stat apparatus (Metrohm AG, Herisau, Switzerland) comprising an 836 Titando, an 804 Ti Stand, a pH electrode (Metrohm), and two 800 Dosino 20 mL dosing units. The system was operated by Tiamo 2.5 software (Metrohm). The biorelevant medium described in Section 2.2.8 was used for this experiment. The pancreatin extract (8× USP) was reconstituted immediately prior to use by adding 5 mL of the biorelevant medium to 1 g of pancreatin, vortexed thoroughly, and centrifuged at 4000g for 15 min at 4 °C (Centrifuge 5702 R, Eppendorf, Germany); 4 mL of the resulting supernatant was recovered and immediately stored on ice before further usage. […] The amount of NaOH dispensed was recorded by the system and used to assess the rate and extent of digestion. […] As the formulation is a type III-A formulation, ultracentrifugation was not required as the lipids should readily disperse within the biorelevant medium.[25] […]

[4] = cited from earlier work

`CC1(C)CCC(CN2CCN(c3ccc(C(=O)NS(=O)(=O)c4ccc(NCC5CCOCC5)c([N+](=O)[O-])c4)c(Oc4cnc5[nH]ccc5c4)c3)CC2)=C(c2ccc(Cl)cc2)C1.CCCCCCCCCCOS(=O)(=O)O` [venetoclax decyl sulfate] gave a biorelevant solubility (Biorelevant solubility) of 10.3 ± 0.8 µg/mL.

For `CC1(C)CCC(CN2CCN(c3ccc(C(=O)NS(=O)(=O)c4ccc(NCC5CCOCC5)c([N+](=O)[O-])c4)c(Oc4cnc5[nH]ccc5c4)c3)CC2)=C(c2ccc(Cl)cc2)C1.CCCCC(CC)COC(=O)CC(C(=O)OCC(CC)CCCC)S(=O)(=O)O` [venetoclax docusate], the “apparent equilibrium solubility in long-chain LBF” value [1] was greater than 25 mg/g, the “apparent equilibrium solubility in medium-chain LBF” value [1] was greater than 50 mg/g and the biorelevant solubility (Biorelevant solubility) was 16.2 ± 1.6 µg/mL. For the same molecule, the saturation ratio [2] was less than 10.3.

In the case of `CC1(C)CCC(CN2CCN(c3ccc(C(=O)NS(=O)(=O)c4ccc(NCC5CCOCC5)c([N+](=O)[O-])c4)c(Oc4cnc5[nH]ccc5c4)c3)CC2)=C(c2ccc(Cl)cc2)C1.CCCCCCCCCCCCS(=O)(=O)O` [venetoclax dodecanesulfonate], the “apparent equilibrium solubility in long-chain LBF” value [1] is reported as greater than 25 mg/g, the “apparent equilibrium solubility in medium-chain LBF” value [1] is reported as greater than 50 mg/g and the biorelevant solubility (Biorelevant solubility) is reported as 9.8 ± 1.4 µg/mL.

`CC1(C)CCC(CN2CCN(c3ccc(C(=O)NS(=O)(=O)c4ccc(NCC5CCOCC5)c([N+](=O)[O-])c4)c(Oc4cnc5[nH]ccc5c4)c3)CC2)=C(c2ccc(Cl)cc2)C1.CCCCCCCCCCCCCCCCCCOS(=O)(=O)O` [venetoclax octadecyl sulfate] showed a biorelevant solubility (Biorelevant solubility) of 8.4 ± 0.7 µg/mL.

`CC1(C)CCC(CN2CCN(c3ccc(C(=O)NS(=O)(=O)c4ccc(NCC5CCOCC5)c([N+](=O)[O-])c4)c(Oc4cnc5[nH]ccc5c4)c3)CC2)=C(c2ccc(Cl)cc2)C1.CCCCCCCCS(=O)(=O)O` [venetoclax octanesulfonate] showed a biorelevant solubility (Biorelevant solubility) of 7.4 ± 0.7 µg/mL.

In the case of `CC1(C)CCC(CN2CCN(c3ccc(C(=O)NS(=O)(=O)c4ccc(NCC5CCOCC5)c([N+](=O)[O-])c4)c(Oc4cnc5[nH]ccc5c4)c3)CC2)=C(c2ccc(Cl)cc2)C1.CCCCCCCCOS(=O)(=O)O` [venetoclax octyl sulfate], the biorelevant solubility (Biorelevant solubility) is reported as 7.7 ± 0.6 µg/mL.

For `CC1(C)CCC(CN2CCN(c3ccc(C(=O)NS(=O)(=O)c4ccc(NCC5CCOCC5)c([N+](=O)[O-])c4)c(Oc4cnc5[nH]ccc5c4)c3)CC2)=C(c2ccc(Cl)cc2)C1` [venetoclax], the solubility (Biorelevant solubility; biorelevant media (FaSSIF-supplemented Tris-maleate buffer), fassif, thermodynamic from solid) was 5.5 ± 1 µg/mL (≈ 6.33 µM), the “concentration of venetoclax in the aqueous phase” value ([3]; LBFs loaded with free base, dispersion and digestion) was less than 50 µg/mL and the dose precipitated ([3]; medium- and long-chain formulations) was “greater than 80%”. For the same molecule, the “solubility in medium- and long-chain triglycerides” value [4] was less than 1000 µg/mL.
